Measured values as given in patent publication US9808450B2, “Solid forms comprising 3-(4-amino-1-OXO-1,3-dihydro-isoindol-2-yl)-piperidine-2,6-dione and a coformer, compositions and methods of use thereof” (CELGENE CORPORATION, priority 2013, dated 2017).
≈ marks a conversion by molar mass, not a printed value.

Key:
[1] = tested on: hematopoietic tumor models, including multiple myeloma; conditions: some in vivo nonclinical hematopoietic tumor models; cited from earlier work
[2] = Estimated solubility of lenalidomide in solvents at ambient temperature (aliquot addition, visual inspection); type: physicochemical; conditions: organic solvent or mixture, thermodynamic from solid
Procedure: Solubility was estimated by treating a weighed sample of lenalidomide with measured aliquots of the test solvent at ambient temperature, with shaking and/or sonication between aliquots. Dissolution was determined by visual inspection. Solubility numbers were calculated by dividing the total amount of solvent used to dissolve the sample by the weight of the sample. The actual solubilities may be greater than the numbers calculated because of the use of solvent aliquots that were too large or because of slow dissolution rates. […] The solubility number is expressed as “greater than” if dissolution occurred on addition of the first solvent aliquot.

COX-1 = conditions: in vitro; cited from earlier work
[3] = tested on: tumor necrosis factor alpha (TNF-α); conditions: peripheral blood mononuclear cells; cited from earlier work
[4] = tested on: cells derived from patients with multiple myeloma and del (5q) myelodysplastic syndromes; conditions: cells from patients with multiple myeloma and del (5q) MDS; cited from earlier work
cyclooxygenase-2 (COX-2) = conditions: in vitro; cited from earlier work

solubility ([2]; acetone): 2200 µg/mL (≈ 8.49 mM) | solubility ([2]; acetonitrile): 3400 µg/mL (≈ 13.1 mM) | solubility ([2]; methanol): 2600 µg/mL (≈ 10 mM) | solubility ([2]; tetrahydrofuran): 3000 µg/mL (≈ 11.6 mM)
SMILES: Nc1cccc2c1CN(C1CCC(=O)NC1=O)C2=O (stereo not drawn) [Lenalidomide, 3-(4-amino-1-oxo-1,3-dihydro-isoindol-2-yl)-piperidine-2,6-dione]
Tumor growth [1]: delay in tumor growth | Expression of COX-1 (COX-1): not | Secretion of TNF-α [3]: inhibits the secretion | Growth of cells in vitro [4]: inhibits the growth | Expression of COX-2 (cyclooxygenase-2 (COX-2)): inhibited the expression
